Measurements published in patent US6737383B1, “Herbicidal oxadiazolidines” (priority 1999, dated 2004).

What was measured:
morningglory = assay: Test B pre/postemergence morningglory; type: in vivo, Ipomoea hederacea
Method in brief: (§1)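 Response is a visual 0-to-10 score relative to untreated plants, where 0 means no effect and 10 means complete control, taken twelve to sixteen days after application. Treatments went onto soil at planting and onto foliage of 1- to 4-leaf plants, using a surfactant-containing non-phytotoxic solvent.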

pigweed = assay: Test B pre/postemergence pigweed; type: in vivo, Amaranthus retroflexus
Method in brief: as §1

wheat = assay: Test B pre/postemergence wheat; type: in vivo, Triticum aestivum
Method in brief: as §1

giant foxtail = assay: Test B pre/postemergence giant foxtail; type: in vivo, Setaria faberii
Method in brief: as §1

velvetleaf = assay: Test B pre/postemergence velvetleaf; type: in vivo, Abutilon theophrasti
Method in brief: as §1

crabgrass = assay: Test B pre/postemergence crabgrass; type: in vivo, Digitaria sanguinalis
Method in brief: as §1

sugar beet = assay: Test B pre/postemergence sugar beet; type: in vivo, Beta vulgaris
Method in brief: as §1

wild oat = assay: Test B pre/postemergence wild oat; type: in vivo, Avena fatua
Method in brief: as §1

cocklebur = assay: Test B pre/postemergence cocklebur; type: in vivo, Xanthium strumarium
Method in brief: as §1

bedstraw = assay: Test B pre/postemergence bedstraw; type: in vivo, Galium aparine
Method in brief: as §1

soybean = assay: Test B pre/postemergence soybean; type: in vivo, Glycine max
Method in brief: as §1

blackgrass = assay: Test B pre/postemergence blackgrass; type: in vivo, Alopecurus myosuroides
Method in brief: as §1

rape = assay: Test B pre/postemergence rape; type: in vivo, Brassica napus
Method in brief: as §1

surinam grass = assay: Test B pre/postemergence surinam grass; type: in vivo, Brachiaria decumbens
Method in brief: as §1

purple nutsedge = assay: Test B pre/postemergence purple nutsedge; type: in vivo, Cyperus rotundus
Method in brief: as §1

corn = assay: Test B pre/postemergence corn; type: in vivo, Zea mays
Method in brief: as §1

[1] = Preemergence, Rate 62 g/ha, scale of 0 to 10 where 0 is no effect and 10 is complete control
[2] = Preemergence, Rate 125 g/ha, 0 is no effect, 10 is complete control
[3] = Preemergence, Rate 250 g/ha, scale 0 to 10, 0 is no effect, 10 is complete control
[4] = Preemergence, Rate 500 g/ha, scale 0 to 10 (0 no effect, 10 complete control)
[5] = Rate 62 g/ha, Postemergence, scale of 0 to 10 where 0 is no effect and 10 is complete control
[6] = Rate 125 g/ha, Postemergence, scale 0 to 10
[7] = Rate 500 g/ha, Postemergence, scale 0 to 10

CC(C)N(C(=O)n1oc(=O)n(CC2CO2)c1=O)c1ccc(F)cc1 (centres unmarked) [Compound 188]
Morningglory plant response rating (morningglory; [1]): 0
Morningglory plant response rating (0 to 10 scale) (morningglory; [2]): 0
Morningglory plant response rating (morningglory; [3]): 0
Morningglory plant response rating (morningglory; [4]): 0
Morningglory plant response rating (morningglory; [5]): 0
Morningglory plant response rating (morningglory; [6]): 0
Plant response rating (0 to 10; 0 is no effect, 10 is complete control), Morningglory (morningglory; Rate 250 g/ha, Postemergence): 0
Morningglory plant response rating (morningglory; [7]): 0
Redroot pigweed plant response rating (pigweed; [1]): 0
Redroot pigweed plant response rating (0 to 10 scale) (pigweed; [2]): 0
Redroot pigweed plant response rating (pigweed; [3]): 0
Redroot pigweed plant response rating (pigweed; [4]): 0
Redroot pigweed plant response rating (pigweed; [5]): 0
Redroot pigweed plant response rating (pigweed; [6]): 0
Plant response rating (0 to 10; 0 is no effect, 10 is complete control), Redroot pigweed (pigweed; Rate 250 g/ha, Postemergence): 0
Redroot pigweed plant response rating (pigweed; [7]): 3
Wheat plant response rating (wheat; [1]): 0
Wheat plant response rating (wheat; [3]): 0
Wheat plant response rating (wheat; [4]): 0
Wheat plant response rating (wheat; [5]): 0
Wheat plant response rating (wheat; [6]): 0
Plant response rating (0 to 10; 0 is no effect, 10 is complete control), Wheat (wheat; Rate 250 g/ha, Postemergence): 0
Giant foxtail plant response rating (giant foxtail; [1]): 0
Giant foxtail plant response rating (0 to 10 scale) (giant foxtail; [2]): 2
Giant foxtail plant response rating (giant foxtail; [3]): 4
Giant foxtail plant response rating (giant foxtail; [4]): 7
Giant foxtail plant response rating (giant foxtail; [5]): 0
Giant foxtail plant response rating (giant foxtail; [6]): 0
Plant response rating (0 to 10; 0 is no effect, 10 is complete control), Giant foxtail (giant foxtail; Rate 250 g/ha, Postemergence): 2
Giant foxtail plant response rating (giant foxtail; [7]): 4
Velvetleaf plant response rating (velvetleaf; [1]): 0
Velvetleaf plant response rating (velvetleaf; [3]): 0
Velvetleaf plant response rating (velvetleaf; [4]): 2
Velvetleaf plant response rating (velvetleaf; [5]): 0
Velvetleaf plant response rating (velvetleaf; [6]): 0
Plant response rating (0 to 10; 0 is no effect, 10 is complete control), Velvetleaf (velvetleaf; Rate 250 g/ha, Postemergence): 0
Crabgrass plant response rating (crabgrass; [1]): 0
Crabgrass plant response rating (0 to 10 scale) (crabgrass; [2]): 0
Crabgrass plant response rating (crabgrass; [3]): 0
Crabgrass plant response rating (crabgrass; [4]): 0
Crabgrass plant response rating (crabgrass; [5]): 0
Crabgrass plant response rating (crabgrass; [6]): 0
Plant response rating (0 to 10; 0 is no effect, 10 is complete control), Crabgrass (crabgrass; Rate 250 g/ha, Postemergence): 3
Crabgrass plant response rating (crabgrass; [7]): 3
Sugarbeets plant response rating (sugar beet; [1]): 0
Sugarbeets plant response rating (0 to 10 scale) (sugar beet; [2]): 0
Sugarbeets plant response rating (sugar beet; [3]): 0
Sugarbeets plant response rating (sugar beet; [4]): 6
Sugarbeets plant response rating (sugar beet; [5]): 0
Sugarbeets plant response rating (sugar beet; [6]): 0
Plant response rating (0 to 10; 0 is no effect, 10 is complete control), Sugarbeets (sugar beet; Rate 250 g/ha, Postemergence): 0
Sugarbeets plant response rating (sugar beet; [7]): 7
Wild oats plant response rating (wild oat; [1]): 0
Wild oats plant response rating (wild oat; [3]): 0
Wild oats plant response rating (wild oat; [4]): 0
Wild oats plant response rating (wild oat; [5]): 0
Wild oats plant response rating (wild oat; [6]): 0
Plant response rating (0 to 10; 0 is no effect, 10 is complete control), Wild oats (wild oat; Rate 250 g/ha, Postemergence): 0
Cocklebur plant response rating (cocklebur; [1]): 0
Cocklebur plant response rating (0 to 10 scale) (cocklebur; [2]): 0
Cocklebur plant response rating (cocklebur; [3]): 0
Cocklebur plant response rating (cocklebur; [4]): 0
Cocklebur plant response rating (cocklebur; [5]): 0
Cocklebur plant response rating (cocklebur; [6]): 0
Plant response rating (0 to 10; 0 is no effect, 10 is complete control), Cocklebur (cocklebur; Rate 250 g/ha, Postemergence): 0
Cocklebur plant response rating (cocklebur; [7]): 0
Bedstraw plant response rating (bedstraw; [1]): 0
Bedstraw plant response rating (0 to 10 scale) (bedstraw; [2]): 0
Bedstraw plant response rating (bedstraw; [3]): 0
Bedstraw plant response rating (bedstraw; [4]): 0
Bedstraw plant response rating (bedstraw; [5]): 0
Bedstraw plant response rating (bedstraw; [6]): 0
Plant response rating (0 to 10; 0 is no effect, 10 is complete control), Bedstraw (bedstraw; Rate 250 g/ha, Postemergence): 3
Bedstraw plant response rating (bedstraw; [7]): 5
Soybean plant response rating (soybean; [1]): 0
Soybean plant response rating (0 to 10 scale) (soybean; [2]): 0
Soybean plant response rating (soybean; [3]): 0
Soybean plant response rating (soybean; [4]): 0
Soybean plant response rating (soybean; [5]): 1
Soybean plant response rating (soybean; [6]): 2
Plant response rating (0 to 10; 0 is no effect, 10 is complete control), Soybean (soybean; Rate 250 g/ha, Postemergence): 2
Soybean plant response rating (soybean; [7]): 3
Blackgrass plant response rating (blackgrass; [1]): 0
Blackgrass plant response rating (0 to 10 scale) (blackgrass; [2]): 0
Blackgrass plant response rating (blackgrass; [3]): 0
Blackgrass plant response rating (blackgrass; [4]): 0
Blackgrass plant response rating (blackgrass; [5]): 0
Blackgrass plant response rating (blackgrass; [6]): 0
Plant response rating (0 to 10; 0 is no effect, 10 is complete control), Blackgrass (blackgrass; Rate 250 g/ha, Postemergence): 0
Blackgrass plant response rating (blackgrass; [7]): 3
Rape plant response rating (rape; [1]): 0
Rape plant response rating (0 to 10 scale) (rape; [2]): 0
Rape plant response rating (rape; [3]): 0
Rape plant response rating (rape; [4]): 0
Rape plant response rating (rape; [5]): 0
Rape plant response rating (rape; [6]): 0
Plant response rating (0 to 10; 0 is no effect, 10 is complete control), Rape (rape; Rate 250 g/ha, Postemergence): 0
Rape plant response rating (rape; [7]): 0
B. signalgrass plant response rating (surinam grass; [1]): 0
B. signalgrass plant response rating (0 to 10 scale) (surinam grass; [2]): 0
B. signalgrass plant response rating (surinam grass; [3]): 6
B. signalgrass plant response rating (surinam grass; [4]): 7
B. signalgrass plant response rating (surinam grass; [5]): 0
B. signalgrass plant response rating (surinam grass; Rate 125 g/ha, Postemergence, scale 0 (no effect) to 10 (complete control)): 0
Plant response rating, B. signalgrass (surinam grass; Rate 250 g/ha, Postemergence, scale 0 to 10, 0 is no effect, 10 is complete control): 0
B. signalgrass plant response rating (surinam grass; Rate 500 g/ha, Postemergence, scale 0 to 10, 0 no effect, 10 complete control): 0
Nutsedge plant response rating (purple nutsedge; [1]): 0
Nutsedge plant response rating (0 to 10 scale) (purple nutsedge; [2]): 0
Nutsedge plant response rating (purple nutsedge; [3]): 0
Nutsedge plant response rating (purple nutsedge; [4]): 0
Nutsedge plant response rating (purple nutsedge; [5]): 0
Nutsedge plant response rating (purple nutsedge; [6]): 0
Plant response rating (0 to 10; 0 is no effect, 10 is complete control), Nutsedge (purple nutsedge; Rate 250 g/ha, Postemergence): 0
Nutsedge plant response rating (purple nutsedge; [7]): 0
Corn plant response rating (corn; [1]): 0
Corn plant response rating (0 to 10 scale) (corn; [2]): 0
Corn plant response rating (corn; [3]): 0
Corn plant response rating (corn; [4]): 0
Corn plant response rating (corn; [5]): 0
Corn plant response rating (corn; [6]): 0
Plant response rating (0 to 10; 0 is no effect, 10 is complete control), Corn (corn; Rate 250 g/ha, Postemergence): 0
Corn plant response rating (corn; [7]): 0
